Source: ChEMBL document CHEMBL4184276, “Curcumin inspired 2-chloro/phenoxy quinoline analogues: Synthesis and biological evaluation as potential anticancer agents” (Bioorg Med Chem Lett, 2018)
One block for each molecule: values may come before it. The source made the active and inactive calls. The calls are words filed in the database; no cut-off is given here.

Experiments:
DU-145 [1] = experiment: Cytotoxicity against human DU145 cells assessed as reduction in cell viability after 48 hrs by MTT assay; format: functional, cell-based; settings: DU-145, 48 h
PC-3 [2] = experiment: Cytotoxicity against human PC3 cells assessed as reduction in cell viability after 48 hrs by MTT assay; format: functional, cell-based; settings: PC-3, 48 h
HeLa = experiment: Cytotoxicity against human HeLa cells assessed as reduction in cell viability after 48 hrs by MTT assay; format: functional, cell-based
4T1 = experiment: Cytotoxicity against mouse 4T1 cells assessed as reduction in cell viability after 48 hrs by MTT assay; format: functional, cell-based; settings: 4T1, 48 h
HGC-27 = experiment: Cytotoxicity against human HGC27 cells assessed as reduction in cell viability after 48 hrs by MTT assay; format: functional, cell-based; settings: HGC-27, 48 h
NCI-H460 [3] = experiment: Cytotoxicity against human NCI-H460 cells assessed as reduction in cell viability after 48 hrs by MTT assay; format: functional, cell-based; settings: NCI-H460, 48 h
PC-3 [4] = experiment: Induction of apoptosis in human PC3 cells assessed as necrotic cells at 2 uM after 24 hrs by Annexin V-FITC/propidium iodide staining based flow cytometry (reference value: 0.28%); format: functional
PC-3 [5] = experiment: Induction of apoptosis in human PC3 cells assessed as early apoptotic cells at 2 uM after 24 hrs by Annexin V-FITC/propidium iodide staining based flow cytometry (reference value: 7.1%); format: functional
PC-3 [6] = experiment: Induction of apoptosis in human PC3 cells assessed as necrotic cells at 4 uM after 24 hrs by Annexin V-FITC/propidium iodide staining based flow cytometry (reference value: 0.28%); format: functional
PC-3 [7] = experiment: Induction of apoptosis in human PC3 cells assessed as cell membrane blebbing at 1 uM after 24 hrs by acridine orange/ethidium bromide staining based fluorescence microscopic method; format: functional
PC-3 [8] = experiment: Induction of apoptosis in human PC3 cells assessed as live cells at 2 uM after 24 hrs by Annexin V-FITC/propidium iodide staining based flow cytometry (reference value: 84.82%); format: functional
PC-3 [9] = experiment: Cell cycle arrest in human PC3 cells assessed as accumulation at sub-G1 phase at 4 uM after 24 hrs by propidium iodide staining based flow cytometry (reference value: 0.43%); format: functional
PC-3 [10] = experiment: Cell cycle arrest in human PC3 cells assessed as accumulation at G0/G1 phase at 2 uM after 24 hrs by propidium iodide staining based flow cytometry (reference value: 55.61%); format: functional
PC-3 [11] = experiment: Cell cycle arrest in human PC3 cells assessed as accumulation at G2/M phase at 4 uM after 24 hrs by propidium iodide staining based flow cytometry (reference value: 34.49%); format: functional
PC-3 [12] = experiment: Cell cycle arrest in human PC3 cells assessed as accumulation at G2/M phase at 2 uM after 24 hrs by propidium iodide staining based flow cytometry (reference value: 34.49%); format: functional
PC-3 [13] = experiment: Potency index, ratio of curcumin IC50 to compound IC50 for human PC3 cells; format: functional
DU-145 [14] = experiment: Potency index, ratio of curcumin IC50 to compound IC50 for human DU145 cells; format: functional
[15] = Aqueous solubility in milli-Q water at 2 mg incubated for 5 mins followed by sonication for 1 mins measured after 24 hrs by UV-Visible spectroscopic method; format: physicochemical
PC-3 [16] = experiment: Induction of apoptosis in human PC3 cells assessed as chromatin condensation at 1 uM after 24 hrs by acridine orange/ethidium bromide staining based fluorescence microscopic method; format: functional, cell-based
PC-3 [17] = experiment: Induction of apoptosis in human PC3 cells assessed as late apoptotic cells at 4 uM after 24 hrs by Annexin V-FITC/propidium iodide staining based flow cytometry (reference value: 7.8%); format: functional
PC-3 [18] = experiment: Induction of apoptosis in human PC3 cells assessed as condensed and pyknotic nuclei formation at 4 uM after 24 hrs by DAPI staining based fluorescence microscopic method; format: functional, cell-based
PC-3 [19] = experiment: Cell cycle arrest in human PC3 cells assessed as accumulation at G0/G1 phase at 4 uM after 24 hrs by propidium iodide staining based flow cytometry (reference value: 55.61%); format: functional
PC-3 [20] = experiment: Induction of apoptosis in human PC3 cells assessed as live cells at 4 uM after 24 hrs by Annexin V-FITC/propidium iodide staining based flow cytometry (reference value: 84.82%); format: functional
PC-3 [21] = experiment: Induction of apoptosis in human PC3 cells assessed as non-uniform distribution of chromatin at 2 uM after 24 hrs by acridine orange/ethidium bromide staining based fluorescence microscopic method; format: functional, cell-based
PC-3 [22] = experiment: Cell cycle arrest in human PC3 cells assessed as accumulation at sub-G1 phase at 2 uM after 24 hrs by propidium iodide staining based flow cytometry (reference value: 0.43%); format: functional
NCI-H460 [23] = experiment: Potency index, ratio of curcumin IC50 to compound IC50 for human NCI-H460 cells; format: functional
PC-3 [24] = experiment: Induction of apoptosis in human PC3 cells assessed as late apoptotic cells at 2 uM after 24 hrs by Annexin V-FITC/propidium iodide staining based flow cytometry (reference value: 7.8%); format: functional
PC-3 [25] = experiment: Cell cycle arrest in human PC3 cells assessed as accumulation at G2/M phase after 24 hrs by propidium iodide staining based flow cytometry; format: functional
PC-3 [26] = experiment: Induction of ROS generation in human PC3 cells at 1 to 2 uM after 24 hrs by DCFDA staining based flow cytometry; format: functional, cell-based
PC-3 [27] = experiment: Cell cycle arrest in human PC3 cells assessed as accumulation at S phase at 2 uM after 24 hrs by propidium iodide staining based flow cytometry (reference value: 9.48%); format: functional
PC-3 [28] = experiment: Induction of apoptosis in human PC3 cells assessed as early apoptotic cells at 4 uM after 24 hrs by Annexin V-FITC/propidium iodide staining based flow cytometry (reference value: 7.1%); format: functional
PC-3 [29] = experiment: Induction of apoptosis in human PC3 cells assessed as fragmentation of chromatin at 4 uM after 24 hrs by acridine orange/ethidium bromide staining based fluorescence microscopic method; format: functional, cell-based
PC-3 [30] = experiment: Cell cycle arrest in human PC3 cells assessed as accumulation at S phase at 4 uM after 24 hrs by propidium iodide staining based flow cytometry (reference value: 9.48%); format: functional

Compound: COc1ccc(OC)c(/C=C/C(=O)/C=C/c2cc3ccccc3nc2Oc2ccc(Br)cc2)c1
- IC50 (DU-145 [1]): > 10 µM
- IC50 (PC-3 [2]): > 10 µM
- IC50 (HeLa): > 10 µM
- IC50 (4T1): > 10 µM
- IC50 (HGC-27): > 10 µM
- IC50 (NCI-H460 [3]): > 10 µM

Compound: COc1cc(OC)c(/C=C/C(=O)/C=C/c2cc3ccccc3nc2Oc2ccccc2)c(OC)c1
- IC50 (DU-145 [1]): > 10 µM
- IC50 (PC-3 [2]): > 10 µM
- IC50 (HeLa): > 10 µM
- IC50 (4T1): > 10 µM
- IC50 (HGC-27): > 10 µM
- IC50 (NCI-H460 [3]): > 10 µM

Compound: COc1cc(OC)c(/C=C/C(=O)/C=C/c2cc3ccccc3nc2Oc2ccccc2C(C)C)c(OC)c1
- IC50 (DU-145 [1]): > 10 µM
- IC50 (PC-3 [2]): > 10 µM
- IC50 (HeLa): > 10 µM
- IC50 (4T1): > 10 µM
- IC50 (HGC-27): > 10 µM
- IC50 (NCI-H460 [3]): > 10 µM

- solubility [15]: Soluble
Compound: COc1cc(OC)c(OC)cc1/C=C/C(=O)/C=C/c1cc2ccccc2nc1Cl
- Activity (PC-3 [4]): 2.21%
- IC50 (DU-145 [1]): 3.99 µM
- Activity (PC-3 [5]): 6.07%
- IC50 (PC-3 [2]): 3.12 µM
- Activity (PC-3 [6]): 2.8%
- Activity (PC-3 [7]): Active
- Activity (PC-3 [8]): 73.21%
- Activity (PC-3 [9]): 0.6%
- IC50 (HeLa): 5.41 µM
- IC50 (4T1): 1.81 µM
- Activity (PC-3 [10]): 50.4%
- Activity (PC-3 [11]): 45.74%
- IC50 (HGC-27): 8.73 µM
- IC50 (NCI-H460 [3]): 3.96 µM
- Activity (PC-3 [12]): 38.16%
- Ratio IC50 (PC-3 [13]): 6
- Ratio IC50 (DU-145 [14]): 8.3
- Activity (PC-3 [16]): Active
- Activity (PC-3 [17]): 29.17%
- Activity (PC-3 [18]): Active
- Activity (PC-3 [19]): 46.86%
- Activity (PC-3 [20]): 60.06%
- Activity (PC-3 [21]): Active
- Activity (PC-3 [22]): 0.9%
- Ratio IC50 (NCI-H460 [23]): 4.3
- Activity (PC-3 [24]): 18.51%
- Activity (PC-3 [25]): Dose-dependent effect
- Activity (PC-3 [26]): Active
- Activity (PC-3 [27]): 10.02%
- Activity (PC-3 [28]): 7.97%
- Activity (PC-3 [29]): Active
- Activity (PC-3 [30]): 6.86%

Compound: COc1ccc(OC)c(/C=C/C(=O)/C=C/c2cc3ccccc3nc2Oc2cccc(Cl)c2)c1
- IC50 (DU-145 [1]): > 10 µM
- IC50 (PC-3 [2]): > 10 µM
- IC50 (HeLa): > 10 µM
- IC50 (4T1): > 10 µM
- IC50 (HGC-27): > 10 µM
- IC50 (NCI-H460 [3]): > 10 µM

Compound: COc1cc(OC)c(OC)cc1/C=C/C(=O)/C=C/c1cc2ccccc2nc1Oc1cccc(Cl)c1
- IC50 (DU-145 [1]): > 10 µM
- IC50 (PC-3 [2]): > 10 µM
- IC50 (HeLa): > 10 µM
- IC50 (4T1): > 10 µM
- IC50 (HGC-27): > 10 µM
- IC50 (NCI-H460 [3]): > 10 µM

Compound: COc1ccc(/C=C/C(=O)/C=C/c2cc3ccccc3nc2Cl)cc1
- IC50 (DU-145 [1]): > 10 µM
- IC50 (PC-3 [2]): > 10 µM
- IC50 (HeLa): > 10 µM
- IC50 (4T1): > 10 µM
- IC50 (HGC-27): > 10 µM
- IC50 (NCI-H460 [3]): > 10 µM

Compound: COc1ccc(/C=C/C(=O)/C=C/c2cc3ccccc3nc2Oc2cccc(Cl)c2)cc1OC
- IC50 (DU-145 [1]): > 10 µM
- IC50 (PC-3 [2]): > 10 µM
- IC50 (HeLa): > 10 µM
- IC50 (4T1): > 10 µM
- IC50 (HGC-27): > 10 µM
- IC50 (NCI-H460 [3]): > 10 µM

Compound: COc1ccc(/C=C/C(=O)/C=C/c2cc3ccccc3nc2Oc2cccc(Cl)c2)c(OC)c1
- IC50 (DU-145 [1]): > 10 µM
- IC50 (PC-3 [2]): > 10 µM
- IC50 (HeLa): > 10 µM
- IC50 (4T1): > 10 µM
- IC50 (HGC-27): > 10 µM
- IC50 (NCI-H460 [3]): > 10 µM

Compound: COc1ccc(/C=C/C(=O)/C=C/c2cc3ccccc3nc2Oc2ccccc2)cc1OC
- IC50 (DU-145 [1]): > 10 µM
- IC50 (PC-3 [2]): > 10 µM
- IC50 (HeLa): > 10 µM
- IC50 (4T1): > 10 µM
- IC50 (HGC-27): > 10 µM
- IC50 (NCI-H460 [3]): > 10 µM

Compound: COc1ccc(/C=C/C(=O)/C=C/c2cc3ccccc3nc2Oc2ccc(Br)cc2)cc1OC
- IC50 (DU-145 [1]): > 10 µM
- IC50 (PC-3 [2]): > 10 µM
- IC50 (HeLa): > 10 µM
- IC50 (4T1): > 10 µM
- IC50 (HGC-27): > 10 µM
- IC50 (NCI-H460 [3]): > 10 µM
